Toxic doses and inconclusive results are not listed. How the source made its calls: active means survival T/C of 150% or more; inactive means T/C below 125% in these data.
Tested on: BDF1 mice, B16 melanoma ip, median survival T/C
Experiment: NCI In Vivo Anticancer Drug Screen. Data for tumor model B16 Melanoma (intraperitoneal) in B6D2F1 (BDF1) mice
Conditions: endpoint: median survival time, higher = longer survival
Method in brief: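 Transplantable tumor model; survival or tumor size measured; reported as T/C, treated over vehicle control.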

[1] = dose: 25.0 mg/kg/injection, schedule: Q01DX009 (ip), vehicle: saline with Tween-80
[2] = dose: 50.0 mg/kg/injection, schedule: Q01DX009 (ip), vehicle: saline with Tween-80
[3] = dose: 100.0 mg/kg/injection, schedule: Q01DX009 (ip), vehicle: saline with Tween-80

Measured: T/C

C=C1C(=O)O[C@@H]2C[C@@H](C)[C@@H]3C=CC(=O)[C@@]3(C)[C@@H](O)[C@H]12
inactive: dose: 2.0 mg/kg/injection, schedule: Q01DX009 (ip), vehicle: saline + alcohol 120 % of control | dose: 2.0 mg/kg/injection, schedule: Q01DX009 (ip), vehicle: saline 104 % of control | dose: 4.0 mg/kg/injection, schedule: Q01DX009 (ip), vehicle: saline + alcohol 115 % of control | dose: 4.0 mg/kg/injection, schedule: Q01DX009 (ip), vehicle: saline 95 % of control | dose: 8.0 mg/kg/injection, schedule: Q01DX009 (ip), vehicle: saline + alcohol 115 % of control | dose: 8.0 mg/kg/injection, schedule: Q01DX009 (ip), vehicle: saline 105 % of control

CCOc1ccc(NC(=O)OCCN2CCN(CCc3ccccc3)C(C)C2)cc1 (stereo not given)
inactive: [1] 108 % of control | [2] 113 % of control | [3] 101 % of control

COc1ccc(NC(=O)Oc2ccc(-c3ccccc3)cc2Br)cc1
inactive: dose: 100.0 mg/kg/injection, schedule: Q01DX009 (ip), vehicle: Klucel (hydroxypropylcellulose) (HPC) 93 % of control | dose: 100.0 mg/kg/injection, schedule: Q04DX003 (ip), vehicle: Klucel (hydroxypropylcellulose) (HPC) 103 % of control | dose: 200.0 mg/kg/injection, schedule: Q01DX009 (ip), vehicle: Klucel (hydroxypropylcellulose) (HPC) 93 % of control | dose: 200.0 mg/kg/injection, schedule: Q04DX003 (ip), vehicle: Klucel (hydroxypropylcellulose) (HPC) 112 % of control | dose: 400.0 mg/kg/injection, schedule: Q01DX009 (ip), vehicle: Klucel (hydroxypropylcellulose) (HPC) 96 % of control | dose: 400.0 mg/kg/injection, schedule: Q04DX003 (ip), vehicle: Klucel (hydroxypropylcellulose) (HPC) 109 % of control

CCNc1nc(NCC)nc(OC)n1
inactive: [2] 117 % of control | dose: 66.0 mg/kg/injection, schedule: Q01DX009 (ip), vehicle: saline with Tween-80 93 % of control | [3] 95 % of control | dose: 150.0 mg/kg/injection, schedule: Q01DX009 (ip), vehicle: saline with Tween-80 93 % of control | dose: 200.0 mg/kg/injection, schedule: Q01DX009 (ip), vehicle: saline with Tween-80 105 % of control

O=C(O)c1cc(C(=O)O)cc([N+](=O)[O-])c1
inactive: [1] 97 % of control | [2] 100 % of control

CCCCNC(=O)Oc1ccc(C(=O)OCC)cc1
inactive: [1] 96 % of control | [2] 98 % of control | [3] 95 % of control

— PubChem BioAssay AID192 (DTP/NCI, 2004)
